Source: patent US20240218022A1, “ANTI-VISTA MACROCYCLIC PEPTIDES AND COMPOSITIONS” (BRISTOL-MYERS SQUIBB COMPANY, priority 2022, published 2024)
Positions of bridges follow the written chain, without caps; N, C: chain ends. Non-standard residues stand in square brackets, D forms with d. Residues, ends and D or L forms follow the SMILES beside them. 2Nal = N[C@@H](Cc1ccc2ccccc2c1)C(=O)O; Ahp(2) = CCCCC[C@H](N)C(=O)O; NHexGly = CCCCCCNCC(=O)O; Nle = CCCC[C@H](N)C(=O)O; Orn = NCCC[C@H](N)C(=O)O; Nva = CCC[C@H](N)C(=O)O; Dap = NC[C@H](N)C(=O)O

Molecular target: T1, mouse VISTA (mVISTA) (Mus musculus, UniProt Q9D659)
T1 construct: expressed in transfected cells; host or cells: Human embryonic kidney 293T cells
T1 sequence (Q9D659 33-308): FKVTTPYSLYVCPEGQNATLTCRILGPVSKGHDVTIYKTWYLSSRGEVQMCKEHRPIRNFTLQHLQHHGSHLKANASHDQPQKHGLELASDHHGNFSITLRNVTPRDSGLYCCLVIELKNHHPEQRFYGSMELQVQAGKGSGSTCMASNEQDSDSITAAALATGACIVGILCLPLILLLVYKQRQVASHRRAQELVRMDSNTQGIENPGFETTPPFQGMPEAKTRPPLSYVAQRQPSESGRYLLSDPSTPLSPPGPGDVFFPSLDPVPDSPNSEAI
Assay: Cell-Based Binding High-Content Assay For mVISTA (HC CBA mVISTA)
Conditions: 293T cells expressing mouse VISTA; competition with biotinylated peptide (2 nM); read-out: HC CBA mVISTA IC50
In short: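 293T cells expressing mouse VISTA, with compounds added either after seeding ("no wash") or before seeding and then washed out after 1 h. Biotinylated peptide 2 nM for 30 min at room temperature, then detection with Alexa 647–streptavidin. After fixation with Hoechst stain, plates were high-content imaged; IC50 from four-parameter logistic fit.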

SMILES	IC50
CCCCCCN1CC(=O)N[C@@H](Cc2ccc(O)cc2)C(=O)N[C@@H](CCCCC)C(=O)N[C@@H](CC(N)=O)C(=O)N[C@@H](CCCNC(=N)N)C(=O)N[C@@H](C)C(=O)N[C@@H](CCCCC)C(=O)N2CCC[C@H]2C(=O)N[C@@H](C(C)C)C(=O)N[C@@H](CO)C(=O)N[C@H](C(=O)NCC(=O)O)CSCC(=O)N[C@@H](Cc2ccccc2)C(=O)N[C@@H](Cc2ccc(O)cc2)C(=O)N[C@@H](CC(=O)O)C1=O [Example 1090] ({CH2CO}-FYD[NHexGly]Y[Ahp(2)]NRA[Ahp(2)]PVSCG-OH; thioether N-14)	8 nM
CCCCCCN1CC(=O)N[C@@H](Cc2ccc(O)cc2)C(=O)N[C@@H](CC(C)C)C(=O)NCC(=O)N[C@@H](CCCNC(=N)N)C(=O)N[C@@H](CCCCN)C(=O)N[C@@H](CCCCC)C(=O)N2CCC[C@H]2C(=O)N[C@@H](C(C)C)C(=O)N[C@@H](CO)C(=O)N[C@H](C(=O)NCC(=O)O)CSCC(=O)N[C@@H](Cc2ccccc2)C(=O)N[C@@H](Cc2ccc(O)cc2)C(=O)N[C@@H](CC(=O)O)C1=O [Example 1091] ({CH2CO}-FYD[NHexGly]YLGRK[Ahp(2)]PVSCG-OH; thioether N-14)	5.3 nM
CCCCCCN1CC(=O)N[C@@H](Cc2ccc(O)cc2)C(=O)N[C@@H](CCCCC)C(=O)NCC(=O)N[C@@H](CCCNC(=N)N)C(=O)N[C@@H](Cc2ccc(O)cc2)C(=O)N[C@@H](CCCCC)C(=O)N2CCC[C@H]2C(=O)N[C@@H](C(C)C)C(=O)N[C@@H](CO)C(=O)N[C@H](C(=O)NCC(N)=O)CSCC(=O)N[C@@H](Cc2ccccc2)C(=O)N[C@@H](Cc2ccc(O)cc2)C(=O)N[C@@H](CC(=O)O)C1=O [Example 1093] ({CH2CO}-FYD[NHexGly]Y[Ahp(2)]GRY[Ahp(2)]PVSCG-NH2; thioether N-14)	40.4 nM
CCCCCCN1CC(=O)N[C@@H](Cc2ccc(O)cc2)C(=O)N[C@@H](CC(C)C)C(=O)NCC(=O)N[C@@H](CCCNC(=N)N)C(=O)N[C@@H](Cc2ccc(O)cc2)C(=O)N[C@@H](CCCCC)C(=O)N2CCC[C@H]2C(=O)N[C@@H](C(C)C)C(=O)N[C@@H](CO)C(=O)N[C@H](C(=O)NCC(N)=O)CSCC(=O)N[C@@H](Cc2ccccc2)C(=O)N[C@@H](Cc2ccc(O)cc2)C(=O)N[C@@H](CC(=O)O)C1=O [Example 1094] ({CH2CO}-FYD[NHexGly]YLGRY[Ahp(2)]PVSCG-NH2; thioether N-14)	34.9 nM
CCCCCCN1CC(=O)N[C@@H](Cc2ccc(O)cc2)C(=O)N[C@@H](CC(C)C)C(=O)NCC(=O)N[C@@H](CCCNC(=N)N)C(=O)N[C@@H](Cc2ccc(O)cc2)C(=O)N[C@@H](CCCCC)C(=O)N2CCC[C@H]2C(=O)N[C@@H](C(C)C)C(=O)N[C@@H](CO)C(=O)N[C@H](C(=O)NCC(=O)O)CSCC(=O)N[C@@H](Cc2ccccc2)C(=O)N[C@@H](Cc2ccc(O)cc2)C(=O)N[C@@H](CC(=O)O)C1=O [Example 1095] ({CH2CO}-FYD[NHexGly]YLGRY[Ahp(2)]PVSCG-OH; thioether N-14)	17.4 nM
CCCCCCN1CC(=O)N[C@@H](Cc2ccc(O)cc2)C(=O)N[C@@H](CC(C)C)C(=O)NCC(=O)N[C@@H](CCCNC(=N)N)C(=O)N[C@@H](Cc2ccc(O)cc2)C(=O)N[C@@H](CCCCC)C(=O)N2CCC[C@H]2C(=O)N[C@@H](C(C)C)C(=O)N[C@@H](CC(=O)O)C(=O)N[C@H](C(=O)NCC(N)=O)CSCC(=O)N[C@@H](Cc2ccccc2)C(=O)N[C@@H](Cc2ccc(O)cc2)C(=O)N[C@@H](CC(=O)O)C1=O [Example 1096] ({CH2CO}-FYD[NHexGly]YLGRY[Ahp(2)]PVDCG-NH2; thioether N-14)	15.5 nM
CCCCCCN1CC(=O)N[C@@H](Cc2ccc(O)cc2)C(=O)N[C@@H](CC(C)C)C(=O)NCC(=O)N[C@@H](CCCNC(=N)N)C(=O)N[C@@H](Cc2ccc(O)cc2)C(=O)N[C@@H](CCCCC)C(=O)N2CCC[C@H]2C(=O)N[C@@H](C(C)C)C(=O)N[C@@H](C(C)C)C(=O)N[C@H](C(=O)NCC(=O)O)CSCC(=O)N[C@@H](Cc2ccccc2)C(=O)N[C@@H](Cc2ccc(O)cc2)C(=O)N[C@@H](CC(=O)O)C1=O [Example 1097] ({CH2CO}-FYD[NHexGly]YLGRY[Ahp(2)]PVVCG-OH; thioether N-14)	18 nM
CCCCCCN1CC(=O)N[C@@H](Cc2ccc(O)cc2)C(=O)N[C@@H](CCCCC)C(=O)N[C@@H](CC(N)=O)C(=O)N[C@@H](CCCNC(=N)N)C(=O)N[C@@H](Cc2c[nH]c3ccccc23)C(=O)N[C@@H](CCCCC)C(=O)N2CCC[C@H]2C(=O)N[C@@H](C(C)C)C(=O)N[C@@H](CO)C(=O)N[C@H](C(=O)NCC(=O)O)CSCC(=O)N[C@@H](Cc2ccccc2)C(=O)N[C@@H](Cc2ccc(O)cc2)C(=O)N[C@@H](CC(=O)O)C1=O [Example 1098] ({CH2CO}-FYD[NHexGly]Y[Ahp(2)]NRW[Ahp(2)]PVSCG-OH; thioether N-14)	14.7 nM
CCCCCCN1CC(=O)N[C@@H](Cc2ccc(O)cc2)C(=O)N[C@@H](C(C)C)C(=O)NCC(=O)N[C@@H](CCCNC(=N)N)C(=O)N[C@@H](CC(C)C)C(=O)N[C@@H](CCCCC)C(=O)N2CCC[C@H]2C(=O)N[C@@H](C(C)C)C(=O)N[C@@H](CC(=O)O)C(=O)N[C@H](C(=O)N[C@@H](CO)C(=O)N[C@@H](CCCN)C(=O)N[C@@H](CC(N)=O)C(=O)O)CSCC(=O)N[C@@H](Cc2ccc3ccccc3c2)C(=O)N[C@@H](Cc2ccc(O)cc2)C(=O)N[C@@H](CC(=O)O)C1=O [Example 1159] ({CH2CO}-[2Nal]YD[NHexGly]YVGRL[Ahp(2)]PVDCS[Orn]N-OH; thioether N-14)	17.2 nM
CCCCCCN1CC(=O)N[C@@H](Cc2ccc(O)cc2)C(=O)N[C@@H](C(C)C)C(=O)NCC(=O)N[C@@H](CCCNC(=N)N)C(=O)N[C@@H](CC(C)C)C(=O)N[C@@H](CCCCC)C(=O)N2CCC[C@H]2C(=O)N[C@@H](C(C)C)C(=O)N[C@@H](CC(=O)O)C(=O)N[C@H](C(=O)N[C@@H](CO)C(=O)N[C@@H](CCCN)C(=O)N[C@@H](CCC(N)=O)C(=O)O)CSCC(=O)N[C@@H](Cc2ccc3ccccc3c2)C(=O)N[C@@H](Cc2ccc(O)cc2)C(=O)N[C@@H](CC(=O)O)C1=O [Example 1160] ({CH2CO}-[2Nal]YD[NHexGly]YVGRL[Ahp(2)]PVDCS[Orn]Q-OH; thioether N-14)	37.1 nM
CCCCCCN1CC(=O)N[C@@H](Cc2ccc(O)cc2)C(=O)N[C@@H](C(C)C)C(=O)NCC(=O)N[C@@H](CCCNC(=N)N)C(=O)N[C@@H](CC(C)C)C(=O)N[C@@H](CCCCC)C(=O)N2CCC[C@H]2C(=O)N[C@@H](C(C)C)C(=O)N[C@@H](CC(=O)O)C(=O)N[C@H](C(=O)N[C@@H](CO)C(=O)N[C@@H](CN)C(=O)N[C@@H](CC(N)=O)C(=O)O)CSCC(=O)N[C@@H](Cc2ccc3ccccc3c2)C(=O)N[C@@H](Cc2ccc(O)cc2)C(=O)N[C@@H](CC(=O)O)C1=O [Example 1161] ({CH2CO}-[2Nal]YD[NHexGly]YVGRL[Ahp(2)]PVDCS[Dap]N-OH; thioether N-14)	22.7 nM

The remaining lines, values ahead:

IC50	SMILES
27.1 nM	CCCCCCN1CC(=O)N[C@@H](Cc2ccc(O)cc2)C(=O)N[C@@H](CC(C)C)C(=O)NCC(=O)N[C@@H](CCCNC(=N)N)C(=O)N[C@@H](CCCCN)C(=O)N[C@@H](CCCCC)C(=O)N2CCC[C@H]2C(=O)N[C@@H](C(C)C)C(=O)N[C@@H](CO)C(=O)N[C@H](C(=O)NCC(N)=O)CSCC(=O)N[C@@H](Cc2ccccc2)C(=O)N[C@@H](Cc2ccc(O)cc2)C(=O)N[C@@H](CC(=O)O)C1=O [Example 1092] ({CH2CO}-FYD[NHexGly]YLGRK[Ahp(2)]PVSCG-NH2; thioether N-14)
21.6 nM	CCCCCCN1CC(=O)N[C@@H](Cc2ccc(O)cc2)C(=O)N[C@@H](CCCC)C(=O)NCC(=O)N[C@@H](CCCNC(=N)N)C(=O)N[C@@H](CC(C)C)C(=O)N[C@@H](CCCCC)C(=O)N2CCC[C@H]2C(=O)N[C@@H](C(C)C)C(=O)N2CCC[C@H]2C(=O)N[C@H](C(=O)NCC(=O)O)CSCC(=O)N[C@@H](Cc2ccccc2)C(=O)N[C@@H](Cc2ccc(O)cc2)C(=O)N[C@@H](CC(=O)O)C1=O [Example 1099] ({CH2CO}-FYD[NHexGly]Y[Nle]GRL[Ahp(2)]PVPCG-OH; thioether N-14)
17.6 nM	CCCCCCN1CC(=O)N[C@@H](Cc2ccc(O)cc2)C(=O)N[C@@H](CCCCC)C(=O)NCC(=O)N[C@@H](CCCNC(=N)N)C(=O)N[C@@H](CC(C)C)C(=O)N[C@@H](CCCCC)C(=O)N2CCC[C@H]2C(=O)N[C@@H](C(C)C)C(=O)N2CCC[C@H]2C(=O)N[C@H](C(=O)NCC(N)=O)CSCC(=O)N[C@@H](Cc2ccccc2)C(=O)N[C@@H](Cc2ccc(O)cc2)C(=O)N[C@@H](CC(=O)O)C1=O [Example 1100] ({CH2CO}-FYD[NHexGly]Y[Ahp(2)]GRL[Ahp(2)]PVPCG-NH2; thioether N-14)
25.7 nM	CCCCCCN1CC(=O)N[C@@H](Cc2ccc(O)cc2)C(=O)N[C@@H](CCC)C(=O)NCC(=O)N[C@@H](CCCNC(=N)N)C(=O)N[C@@H](CC(C)C)C(=O)N[C@@H](CCCCC)C(=O)N2CCC[C@H]2C(=O)N[C@@H](C(C)C)C(=O)N2CCC[C@H]2C(=O)N[C@H](C(=O)NCC(N)=O)CSCC(=O)N[C@@H](Cc2ccccc2)C(=O)N[C@@H](Cc2ccc(O)cc2)C(=O)N[C@@H](CC(=O)O)C1=O [Example 1102] ({CH2CO}-FYD[NHexGly]Y[Nva]GRL[Ahp(2)]PVPCG-NH2; thioether N-14)
39.1 nM	CCCCCCN1CC(=O)N[C@@H](Cc2ccc(O)cc2)C(=O)N[C@@H](C(C)C)C(=O)NCC(=O)N[C@@H](CCCNC(=N)N)C(=O)N[C@@H](CC(C)C)C(=O)N[C@@H](CCCCC)C(=O)N2CCC[C@H]2C(=O)N[C@@H](C(C)C)C(=O)N2CCC[C@H]2C(=O)N[C@H](C(=O)NCC(=O)O)CSCC(=O)N[C@@H](Cc2ccccc2)C(=O)N[C@@H](Cc2ccc(O)cc2)C(=O)N[C@@H](CC(=O)O)C1=O [Example 1109] ({CH2CO}-FYD[NHexGly]YVGRL[Ahp(2)]PVPCG-OH; thioether N-14)
